Patent US20030013711A1, “Chemical derivatives and their application as antitelomerase agents” (priority 2001, published 2003)

Test system: A549 cells
Assay: Cytotoxicity on human tumor line A549 (neutral red)
Type: cell-based
Details: 96 hours incubation
Protocol: The Cytotoxic Biological Activity on Human Tumor Lines is Determined According to the Following Experimental Protocol:
The human cell lines KB and A549 are obtained from the ATCC (American Type Culture Collection, Rockville, USA). The A549 cells are cultured as a layer in a culture flask in RPMI 1640 medium, L-glutamine to 2 mM, 200 U/ml penicillin, 200 μg/ml streptomycin and supplemented with 10% heat-inactivated fetal calf serum. The KB cells are cultured as a layer in a culture flask in Dulbelco's medium containing L-glutamine to 2 mM, 200 U/ml penicillin, 200 μg/ml streptomycin and supplemented with 10% heat-inactivated fetal calf serum.
The cells in exponential growth phase are trypsinized, washed in PBS 1×, and inoculated in 96-well microplates (Costar) at a concentration of 4×10^4 cells/ml for A549 and 1.5×10^4 cells/ml (0.2 ml/well) for KB cells. The cells are then incubated for 96 hours in the presence of variable concentrations of test compounds (10, 1, 0.1 and 0.01 μg/ml, each point being determined in quadruplicate). Sixteen hours before the end of the incubation, neutral red is added to a final concentration of 0.02% in each well. […] The cellular incorporation of the dye, which reflects the cell growth, is evaluated by spectrophotometry at a wavelength of 540 nm for each sample using a Dynatech MR5000 reading machine. […]

CSc1nc(Nc2ccc3nc(C)cc(N)c3c2)nc(OC2CCN(C)CC2)n1 [Example 3, N6-[6-(1-methylpiperid-4-yloxy)-4-methylsulfanyl-[1,3,5]triazin-2-yl]-2-methylquinoline-4,6-diamine]
IC50: 6 µM
